{"source": "patent US20030166561A1", "about": "“Peptide” (priority 1999, published 2003)", "key": {"[1]": {"test_system": "isolated perfused rat pancreas", "assay": "Insulin secretion from glucose-stimulated isolated-perfused rat pancreas (infusion of preptin or anti-preptin γ-globulin)", "details": "75 nM preptin, 20 mM glucose; compared with control (0-added preptin); p=0.03", "protocol": "Pancreases from fasted adult male Wistar rats (300±25 g) were isolated and prepared (Grodsky and Fanska 1975). Pancreases were perfused with KHB supplemented with 4% dextran, 0.5% BSA, 3 mM arginine and 5.5 mM glucose. Perfusate was gassed with 95% 02:5% CO2 and infused by peristaltic pump (2.7 ml.min^−1 without re-circulation). Pancreases were perfused and equilibrated for 20 min prior to each 70 min perfusion experiment. 10 min into the experiment either carrier buffer (0.1% BSA in 0.9% NaCl), preptin dissolved in carrier buffer, anti-preptin Ig or non-immunised rabbit Ig (both diluted in carrier buffer) were introduced via a side-arm infusion (final concentrations in perfusate: 75 nM preptin; 35 μg.ml^−1 Ig). In addition, at 25 min, glucose was infused for 20 min (final concentration in perfusate: 20 mM). […]\nPancreases were perfused with KHB supplemented with 4% dextran, 0.5% BSA, 3 mM-arginine and 5.5 mM glucose (final concentrations). […] 10-min into the experiment either anti-preptin γ-globulin or non-immune rabbit γ-globulin were introduced via a side-arm infusion (final γ-globulin concentration in perfusate: 35 μg.ml^−1 in carrier buffer (0.1% BSA in 0.9% NaCl). In addition, at 25-min, glucose was infused for 20-min (measured final concentration in perfusate: 20 mM). Continuous 1-min fractions were collected on ice and assayed for insulin (RIA)."}, "βTC6-F7 cells": {"test_system": "βTC6-F7 cells", "assay": "Effect of preptin on glucose-stimulated insulin secretion from cultured βTC6-F7 cells", "assay_type": "cell-based, murine", "details": "10 mM glucose", "protocol": "Insulin and amylin are known to modulate β-cell insulin secretion via presumed autocrine mechanisms. The effect of preptin on insulin secretion was therefore tested using a β-cell secretagogue protocol βTC6-F7 cells were subcultured at passage #52 into 24-well plates at 4×10^5 cells/well. They were grown for 3d in nDMEM to 80% confluence, then washed twice with KRB-HEPES. Stock preptin was serially diluted in incubation medium containing 10 mM D(+) glucose to yield final concentrations of 150, 75, 25, 5, 1 and 0.1 nM. Cells were then washed, and 1 ml/well of incubation medium containing 10 mM and-various final preptin concentrations was added to each well. Cells were incubated at 37° C. for 2 h, then medium removed. Cells were washed thrice with PBS, then lysed with 500 μl of lysis buffer. Incubation medium was centrifuged (16,000×g, 3 min) and the supernatant separated from pelleted debris. Incubation medium and lysates were then analyzed for insulin, preptin and protein as above."}}, "note": "Where no end group is shown, it is not given here."}
{"sequence": "DVSTSQAVLPDDFPRYPVGKFFKFDTWRQSAGRL [synthetic rat preptin, 34 amino acid peptide, Asp69-Leu102 of rat proIGF-II E-peptide, chemically synthesized using Fmoc chemistry]", "values": [{"measurement": "enhancement of second phase of insulin secretion (areas-under-curve)", "setting": "[1]", "value": 30, "unit": "%"}, {"measurement": "preptin concentration at which effect on insulin secretion reached maximal", "setting": "βTC6-F7 cells", "value": 75, "unit": "nM"}, {"measurement": "glucose-stimulated secretion of insulin", "setting": "βTC6-F7 cells; 2 h, 37° C., compared to controls (0 added preptin)", "value": "enhanced"}, {"measurement": "preptin concentration at which significant effects on insulin secretion were detected", "setting": "βTC6-F7 cells; compared to controls (0 added preptin)", "value": "≥ 0.1", "unit": "nM"}]}
